# Source: US6008222A (Bristol-Myers Squibb Company, priority 1997, dated 1999)
# Entries after “also recorded” stand apart in the source; their conditions may differ.
# Assays:
# [1] = human, in vivo
# anxiolytic activity = conditions: cited from earlier work
# [2] = test system: diazepam-withdrawn animals; conditions: cited from earlier work
# diazepam-naive subjects = conditions: previous studies; cited from earlier work
# rat = conditions: systemic administration of 1-PP; cited from earlier work
# [3] = in vivo, cited from earlier work
# [4] = human, in vivo; cited from earlier work
# antidepressant effect = conditions: co-administered with an antidepressant drug regimen such as fluoxetine; cited from earlier work
# [5] = test system: patients undergoing diazepam-withdrawal; conditions: human, in vivo; cited from earlier work
# [6] = test system: anxiety disorders and depression; conditions: U.S. Pat. No. 3,717,634; cited from earlier work
# clinical = conditions: human, in vivo, po
# [7] = six subject pharmacokinetic study: buspirone and 1-PP blood levels following seven days of drug administration
# cytochrome P4503A4 = conditions: cited from earlier work
# cytochrome P4503A3/4 = conditions: J. Clin. Psychiatry, 57:7, July 1996; cited from earlier work
# [8] = J. Clin. Psychiatry, 57:7, July 1996; cited from earlier work
smiles,measurement,setting,value
"c1cnc(N2CCNCC2)nc1 [1-PP, 1-(2-pyrimidinyl)-piperazine]",intra- and inter-patient variations in blood levels,[1],reduced
same,anxiolytic activity,anxiolytic activity; certain tests / earlier animal testing,(weak) antianxiety activity; also recorded: weak anxiolytic activity
same,antagonism of the anxiolytic and/or antidepressant action of buspirone,anxiolytic activity; other tests,antagonizes the desired anxiolytic and/or antidepressant action of buspirone
same,effect in social interaction paradigms,[2],anxiogenic effect
same,effect on social interaction,diazepam-naive subjects,not shown any effect
same,antagonism of intracerebral buspirone activity,rat,could be blocked
same,plasma levels of 1-PP,[3],much higher plasma levels
same,association of high 1-PP levels with undesired or adverse events,[4],associated with the occurrence of undesired or adverse events
"O=C1CC2(CCCC2)CC(=O)N1CCCCN1CCN(c2ncccn2)CC1 [Buspirone, 8-[4-[4-(2-pyrimidinyl)1-piperazinyl]butyl]-8-azaspiro(4,5)-decane,7,9-dione]",intra- and inter-patient variations in blood levels,[1],reduced
same,augmentation of an antidepressant effect,antidepressant effect,effective
same,treatment of patients undergoing diazepam-withdrawal,[5],failed to adequately treat
same,effectiveness for the treatment of anxiety disorders and depression,[6],effective
same,AUC(0-t) at […],clinical,29.4 ± 9.9 ng·h/mL
same,Cmax at […],clinical,8 ± 3.3 ng/mL
same,Tmax at […],clinical,1 h
same,half-life at […],clinical; T1/2 of buspirone,2.6 ± 1.8 h
same,absorption,[3]; po,rapidly absorbed
same,disappearance of buspirone,[7]; concurrent administration of nefazodone,delayed
CCc1nn(CCCN2CCN(c3cccc(Cl)c3)CC2)c(=O)n1CCOc1ccccc1 [Nefazodone],inhibition of cytochrome P4503A4,cytochrome P4503A4,an inhibitor
same,inhibition of cytochrome P4503A3/4,cytochrome P4503A3/4,inhibition
same,effect on concentration and toxicity of alprazolam and triazolam,[8],increasing the concentration and toxicity of alprazolam and triazolam
same,inhibition of buspirone metabolism,"[7]; in the presence of nefazodone, preliminary study data",marked inhibition of buspirone metabolism
